{
  "source": "ChEMBL document CHEMBL6074715",
  "about": "“Discovery of pyridine-based derivatives as FLT3 inhibitors for the treatment of acute myeloid leukemia” (Eur J Med Chem, 2025)",
  "key": {"Homo sapiens [1]": {"organism": "Homo sapiens", "assay": "Inhibition of human cSRC at 1 uM by Eurofins kinase assay"}, "[2]": {"tested_on": "Mast/stem cell growth factor receptor Kit (Homo sapiens), P10721 [D816V]", "assay": "Inhibition of human c-kit D816V mutant at 1 uM by Eurofins kinase assay"}, "[3]": {"tested_on": "Receptor-type tyrosine-protein kinase FLT3 (Homo sapiens), P36888 [D835Y]", "assay": "Inhibition of human FLT3 D835Y mutant at 1 uM by Eurofins kinase assay"}, "MOLM-13 [4]": {"tested_on": "MOLM-13", "assay": "Induction of apoptosis in human MOLM-13 cells assessed as necrotic cells at 0.3 uM measured after 48 hrs by annexin-V and PI staining based flow cytometry analysis (reference value: 0.087%)", "type": "functional"}, "Homo sapiens [5]": {"organism": "Homo sapiens", "assay": "Inhibition of human Rct at 1 uM by Eurofins kinase assay"}, "[6]": {"biological_target": "Dual specificity mitogen-activated protein kinase kinase 1 (Homo sapiens) (UniProt Q02750)", "sequence (Q02750 whole entry)": "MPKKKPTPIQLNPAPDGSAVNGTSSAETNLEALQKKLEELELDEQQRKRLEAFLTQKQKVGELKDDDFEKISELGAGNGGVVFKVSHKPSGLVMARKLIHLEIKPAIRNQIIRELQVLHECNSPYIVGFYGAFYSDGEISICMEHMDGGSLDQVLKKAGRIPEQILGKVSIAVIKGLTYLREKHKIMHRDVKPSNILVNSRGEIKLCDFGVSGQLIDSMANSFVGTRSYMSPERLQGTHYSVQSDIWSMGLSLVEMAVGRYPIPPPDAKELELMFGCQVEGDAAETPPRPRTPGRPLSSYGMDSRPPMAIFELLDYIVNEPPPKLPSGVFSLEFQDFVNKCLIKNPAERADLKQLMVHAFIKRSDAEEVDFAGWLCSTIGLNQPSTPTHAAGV", "assay": "Inhibition of human MEK1 at 1 uM by Eurofins kinase assay"}, "[7]": {"assay": "Toxicity in female NSG mouse assessed as effect on liver at 20 to 40 mg/kg, po measured after 21 days by H and E staining based analysis", "type": "organism-based", "settings": "in vivo, 504 h, dose 20-40 mg/kg, time 21 day"}, "MOLM-13 [8]": {"tested_on": "MOLM-13", "assay": "Induction of apoptosis in human MOLM-13 cells assessed as late apoptotic cells at 3 uM measured after 48 hrs by annexin-V and PI staining based flow cytometry analysis (reference value: 2.28%)", "type": "functional"}, "[9]": {"assay": "MRT (0 to t) in Sprague-Dawley rat at 20 mg/kg, po measured upto 48 hrs by LC-MS/MS analysis", "type": "ADME, organism-based", "settings": "in vivo"}, "MOLM-13 [10]": {"tested_on": "MOLM-13", "assay": "Induction of apoptosis in human MOLM-13 cells assessed as late apoptotic cells at 1 uM measured after 48 hrs by annexin-V and PI staining based flow cytometry analysis (reference value: 2.28%)", "type": "functional"}, "[11]": {"biological_target": "Insulin receptor (Homo sapiens) (UniProt P06213)", "assay": "Inhibition of human INSR at 1 uM by Eurofins kinase assay"}, "[12]": {"biological_target": "Cyclin-dependent kinase 2/cyclin A (Homo sapiens) (UniProt P24941+P20248+P78396)", "assay": "Inhibition of human CDK2/cyclinA at 1 uM by Eurofins kinase assay", "type": "protein-complex assay"}, "[13]": {"biological_target": "Mitogen-activated protein kinase 8 (Homo sapiens) (UniProt P45983)", "sequence (P45983 whole entry)": "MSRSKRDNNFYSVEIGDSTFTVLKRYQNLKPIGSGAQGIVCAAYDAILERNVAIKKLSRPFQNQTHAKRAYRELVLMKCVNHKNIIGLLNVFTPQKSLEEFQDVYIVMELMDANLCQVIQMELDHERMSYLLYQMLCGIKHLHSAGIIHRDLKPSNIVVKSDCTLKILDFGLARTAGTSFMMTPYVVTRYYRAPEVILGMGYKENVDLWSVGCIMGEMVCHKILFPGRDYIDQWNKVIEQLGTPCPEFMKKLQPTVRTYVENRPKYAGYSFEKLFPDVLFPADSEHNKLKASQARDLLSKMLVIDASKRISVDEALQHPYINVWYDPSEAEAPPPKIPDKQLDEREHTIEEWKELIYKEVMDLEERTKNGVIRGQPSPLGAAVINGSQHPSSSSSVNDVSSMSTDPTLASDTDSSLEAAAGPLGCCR", "assay": "Inhibition of human JNK1 at 1 uM by Eurofins kinase assay"}, "[14]": {"biological_target": "Receptor-type tyrosine-protein kinase FLT3 (Homo sapiens, UniProt P36888, ITD)", "assay": "Inhibition of FLT3 ITD mutant (unknown origin) preincubated for 10 mins followed by addition of peptide solution by caliper mobility shift assay"}, "[15]": {"biological_target": "Receptor-type tyrosine-protein kinase FLT3 (Homo sapiens) (UniProt P36888)", "assay": "Inhibition of FLT3 phosphorylation in human MOLM-13 cells at 40 nM incubated for 2 hrs by Western blot analysis relative to control", "type": "cell-based"}, "[16]": {"biological_target": "T1, Vascular endothelial growth factor receptor 1 (Homo sapiens, UniProt P17948)", "T1 sequence (P17948 whole entry)": "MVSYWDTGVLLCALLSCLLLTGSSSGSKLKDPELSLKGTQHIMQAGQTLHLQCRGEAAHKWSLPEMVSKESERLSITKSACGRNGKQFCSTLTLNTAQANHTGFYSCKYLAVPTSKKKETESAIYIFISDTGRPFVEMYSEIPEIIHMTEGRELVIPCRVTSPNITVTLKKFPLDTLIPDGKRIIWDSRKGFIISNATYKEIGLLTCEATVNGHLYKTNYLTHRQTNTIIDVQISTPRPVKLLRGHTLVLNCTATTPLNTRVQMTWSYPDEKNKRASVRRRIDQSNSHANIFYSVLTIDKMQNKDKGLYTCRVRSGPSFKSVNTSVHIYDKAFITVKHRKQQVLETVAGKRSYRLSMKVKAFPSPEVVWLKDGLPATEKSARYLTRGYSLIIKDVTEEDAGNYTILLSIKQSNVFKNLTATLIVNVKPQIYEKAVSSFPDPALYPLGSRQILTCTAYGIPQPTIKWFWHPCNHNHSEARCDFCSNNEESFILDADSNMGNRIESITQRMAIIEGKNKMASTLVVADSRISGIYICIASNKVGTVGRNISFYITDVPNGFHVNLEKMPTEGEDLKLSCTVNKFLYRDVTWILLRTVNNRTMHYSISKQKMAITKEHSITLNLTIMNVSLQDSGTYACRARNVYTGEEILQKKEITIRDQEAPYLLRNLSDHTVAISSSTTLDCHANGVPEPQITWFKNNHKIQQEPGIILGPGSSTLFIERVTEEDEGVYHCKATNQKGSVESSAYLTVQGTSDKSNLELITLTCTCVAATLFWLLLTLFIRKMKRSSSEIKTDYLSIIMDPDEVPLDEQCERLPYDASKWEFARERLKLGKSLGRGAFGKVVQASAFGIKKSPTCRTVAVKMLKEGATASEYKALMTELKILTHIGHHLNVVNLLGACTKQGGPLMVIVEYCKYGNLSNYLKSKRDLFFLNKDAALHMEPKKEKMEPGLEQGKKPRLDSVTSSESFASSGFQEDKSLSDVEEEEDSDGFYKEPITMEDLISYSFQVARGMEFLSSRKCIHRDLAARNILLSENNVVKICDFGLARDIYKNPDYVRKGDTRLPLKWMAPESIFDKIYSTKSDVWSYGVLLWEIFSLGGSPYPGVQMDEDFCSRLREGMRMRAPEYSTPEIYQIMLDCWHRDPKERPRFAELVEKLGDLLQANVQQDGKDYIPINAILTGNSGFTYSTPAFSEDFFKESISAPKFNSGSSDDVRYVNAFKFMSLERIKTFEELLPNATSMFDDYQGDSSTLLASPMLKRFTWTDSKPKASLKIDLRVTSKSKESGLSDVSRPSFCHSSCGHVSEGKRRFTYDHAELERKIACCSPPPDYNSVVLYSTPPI", "assay": "Inhibition of human FLT assessed as residual activity at 1 uM by Eurofins kinase assay relative to control"}, "[17]": {"biological_target": "T1, Vascular endothelial growth factor receptor 1", "assay": "Inhibition of FLT (unknown origin) preincubated for 10 mins followed by addition of peptide solution by caliper mobility shift assay"}, "[18]": {"biological_target": "Tyrosine-protein kinase Lck (Homo sapiens) (UniProt P06239)", "sequence (P06239 2-509 limits assumed)": "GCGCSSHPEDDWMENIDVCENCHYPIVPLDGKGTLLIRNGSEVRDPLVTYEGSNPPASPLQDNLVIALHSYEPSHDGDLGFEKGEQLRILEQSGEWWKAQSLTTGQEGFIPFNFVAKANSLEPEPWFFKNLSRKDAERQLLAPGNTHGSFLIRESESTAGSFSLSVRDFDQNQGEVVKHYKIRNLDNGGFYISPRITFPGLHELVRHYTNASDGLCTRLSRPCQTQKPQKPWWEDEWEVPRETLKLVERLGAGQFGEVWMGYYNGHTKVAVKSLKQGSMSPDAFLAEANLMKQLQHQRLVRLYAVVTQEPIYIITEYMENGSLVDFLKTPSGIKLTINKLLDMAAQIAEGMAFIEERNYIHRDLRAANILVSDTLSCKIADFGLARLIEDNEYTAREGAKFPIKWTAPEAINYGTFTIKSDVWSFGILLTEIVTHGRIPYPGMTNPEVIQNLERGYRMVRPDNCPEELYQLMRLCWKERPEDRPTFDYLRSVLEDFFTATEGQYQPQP", "assay": "Inhibition of human LCK at 1 uM by Eurofins kinase assay"}, "SBC-5": {"tested_on": "SBC-5", "assay": "Antiproliferative activity against human SBC-5 cells assessed as inhibition of cell growth measured after 72 hrs by Celltiter-glo luminescent cell viability assay", "type": "functional, cell-based", "settings": "SBC-5, 72 h"}, "[19]": {"biological_target": "Epithelial discoidin domain-containing receptor 1 (Homo sapiens) (UniProt Q08345)", "assay": "Inhibition of human DDR1 at 1 uM by Eurofins kinase assay"}, "EBC-1": {"tested_on": "EBC-1", "assay": "Antiproliferative activity against human EBC-1 cells assessed as inhibition of cell growth measured after 72 hrs by Celltiter-glo luminescent cell viability assay", "type": "functional, cell-based", "settings": "EBC-1, 72 h"}, "[20]": {"biological_target": "Platelet-derived growth factor receptor beta (Homo sapiens) (UniProt P09619)", "assay": "Inhibition of human PDGFRbeta at 1 uM by Eurofins kinase assay"}, "MOLM-13 [21]": {"tested_on": "MOLM-13", "assay": "Induction of cell cycle arrest in human MOLM-13 cells assessed as accumulation of cells at S phase at 3 uM measured after 48 hrs by PI staining based flow cytometry analysis (reference value: 45.3%)", "type": "functional"}, "MOLM-13 [22]": {"tested_on": "MOLM-13", "assay": "Induction of apoptosis in human MOLM-13 cells assessed as viable cells at 0.3 uM measured after 48 hrs by annexin-V and PI staining based flow cytometry analysis (reference value: 88.7%)", "type": "functional", "settings": "read-out: Activity"}, "[23]": {"biological_target": "Mast/stem cell growth factor receptor Kit (Homo sapiens) (UniProt P10721)", "assay": "Inhibition of human ckit at 1 uM by Eurofins kinase assay"}, "[24]": {"biological_target": "Vascular endothelial growth factor receptor 2 (Homo sapiens, UniProt P35968)", "sequence (P35968 whole entry)": "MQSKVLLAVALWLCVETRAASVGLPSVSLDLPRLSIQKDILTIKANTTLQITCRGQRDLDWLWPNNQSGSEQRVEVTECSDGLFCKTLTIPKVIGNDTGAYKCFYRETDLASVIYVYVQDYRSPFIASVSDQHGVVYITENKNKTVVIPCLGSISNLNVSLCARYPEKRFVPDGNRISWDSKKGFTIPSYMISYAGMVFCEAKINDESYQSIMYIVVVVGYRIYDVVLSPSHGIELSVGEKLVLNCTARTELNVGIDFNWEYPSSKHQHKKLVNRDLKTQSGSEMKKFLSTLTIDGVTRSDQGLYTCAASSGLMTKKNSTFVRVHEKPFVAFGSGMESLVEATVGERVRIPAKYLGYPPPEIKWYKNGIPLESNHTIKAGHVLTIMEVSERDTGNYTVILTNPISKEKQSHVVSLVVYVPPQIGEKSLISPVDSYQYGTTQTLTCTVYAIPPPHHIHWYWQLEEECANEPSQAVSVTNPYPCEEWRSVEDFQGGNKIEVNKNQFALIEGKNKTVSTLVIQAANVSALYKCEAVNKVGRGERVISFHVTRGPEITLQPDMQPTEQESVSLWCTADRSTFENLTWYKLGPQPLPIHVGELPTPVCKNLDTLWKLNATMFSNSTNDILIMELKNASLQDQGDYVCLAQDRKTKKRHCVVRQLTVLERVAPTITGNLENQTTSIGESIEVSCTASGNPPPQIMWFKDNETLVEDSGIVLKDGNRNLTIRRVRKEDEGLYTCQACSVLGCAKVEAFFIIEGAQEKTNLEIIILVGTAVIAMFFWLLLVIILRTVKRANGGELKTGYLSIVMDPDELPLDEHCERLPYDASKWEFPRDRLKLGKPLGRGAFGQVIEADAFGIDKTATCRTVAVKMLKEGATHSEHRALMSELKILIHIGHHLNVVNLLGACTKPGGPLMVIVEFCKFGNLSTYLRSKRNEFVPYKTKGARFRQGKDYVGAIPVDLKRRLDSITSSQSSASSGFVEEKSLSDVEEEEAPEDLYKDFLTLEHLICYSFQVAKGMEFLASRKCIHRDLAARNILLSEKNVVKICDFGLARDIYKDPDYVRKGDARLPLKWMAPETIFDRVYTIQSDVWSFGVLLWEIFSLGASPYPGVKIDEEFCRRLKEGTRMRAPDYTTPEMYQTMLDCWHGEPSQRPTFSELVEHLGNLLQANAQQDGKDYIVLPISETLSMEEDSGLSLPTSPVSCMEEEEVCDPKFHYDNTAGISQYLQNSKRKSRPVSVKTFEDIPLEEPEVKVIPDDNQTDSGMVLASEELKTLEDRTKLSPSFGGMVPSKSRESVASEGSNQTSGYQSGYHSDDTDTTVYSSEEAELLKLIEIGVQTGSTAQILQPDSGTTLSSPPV", "assay": "Inhibition of VEGFR2 (unknown origin) preincubated for 10 mins followed by addition of peptide solution by caliper mobility shift assay"}, "U-87 MG": {"tested_on": "U-87 MG", "assay": "Antiproliferative activity against human U-87 MG cells assessed as inhibition of cell growth measured after 72 hrs by Celltiter-glo luminescent cell viability assay", "type": "functional, cell-based, U-87MG ATCC"}, "MOLM-13 [25]": {"tested_on": "MOLM-13", "assay": "Induction of apoptosis in human MOLM-13 cells assessed as early apoptotic cells at 3 uM measured after 48 hrs by annexin-V and PI staining based flow cytometry analysis (reference value: 8.92%)", "type": "functional"}, "[26]": {"biological_target": "Serine/threonine-protein kinase B-raf (Homo sapiens) (UniProt P15056)", "assay": "Inhibition of human BRAF at 1 uM by Eurofins kinase assay"}, "MOLM-13 [27]": {"tested_on": "MOLM-13", "assay": "Induction of apoptosis in human MOLM-13 cells assessed as early apoptotic cells at 1 uM measured after 48 hrs by annexin-V and PI staining based flow cytometry analysis (reference value: 8.92%)", "type": "functional"}, "[28]": {"biological_target": "Serine/threonine-protein kinase Nek2 (Homo sapiens) (UniProt P51955)", "sequence (P51955 whole entry)": "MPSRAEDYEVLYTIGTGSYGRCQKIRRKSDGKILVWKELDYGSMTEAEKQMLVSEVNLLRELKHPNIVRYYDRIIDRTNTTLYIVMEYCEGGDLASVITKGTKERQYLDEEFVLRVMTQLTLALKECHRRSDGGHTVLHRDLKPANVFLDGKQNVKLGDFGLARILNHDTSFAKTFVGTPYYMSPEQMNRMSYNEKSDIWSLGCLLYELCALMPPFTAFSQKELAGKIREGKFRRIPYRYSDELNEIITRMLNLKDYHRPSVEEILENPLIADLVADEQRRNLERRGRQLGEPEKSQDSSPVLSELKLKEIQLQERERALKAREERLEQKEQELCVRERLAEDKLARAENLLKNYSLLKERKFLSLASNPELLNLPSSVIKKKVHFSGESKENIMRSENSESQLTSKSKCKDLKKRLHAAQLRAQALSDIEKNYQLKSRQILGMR", "assay": "Inhibition of human NEK2 at 1 uM by Eurofins kinase assay"}, "[29]": {"assay": "Antiproliferative activity against mouse Ba/F3 FLT3-ITD cells assessed as inhibition of cell growth measured after 72 hrs by Celltiter-glo luminescent cell viability assay", "type": "functional, cell-based"}, "MOLM-13 [30]": {"tested_on": "MOLM-13", "assay": "Induction of cell cycle arrest in human MOLM-13 cells assessed as accumulation of cells at G2 phase at 3 uM measured after 48 hrs by PI staining based flow cytometry analysis (reference value: 12.5%)", "type": "functional"}, "MOLM-13 [31]": {"tested_on": "MOLM-13", "assay": "Induction of apoptosis in human MOLM-13 cells assessed as viable cells at 1 uM measured after 48 hrs by annexin-V and PI staining based flow cytometry analysis (reference value: 88.7%)", "type": "functional", "settings": "read-out: Activity"}, "MOLM-14": {"tested_on": "MOLM-14", "assay": "Antiproliferative activity against human MOLM-14 cells harbouring FLT3-ITD assessed as inhibition of cell growth measured after 72 hrs by Celltiter-glo luminescent cell viability assay", "type": "functional, cell-based", "settings": "MOLM-14, 72 h"}, "[32]": {"biological_target": "Proto-oncogene tyrosine-protein kinase ROS (Homo sapiens) (UniProt P08922)", "assay": "Inhibition of human Ros at 1 uM by Eurofins kinase assay"}, "[33]": {"assay": "Tmax in Sprague-Dawley rat at 5 mg/kg, iv measured upto 48 hrs by LC-MS/MS analysis", "type": "ADME, organism-based", "settings": "in vivo"}, "MV4-11": {"tested_on": "MV4-11", "assay": "Antiproliferative activity against human MV4-11 cells assessed as inhibition of cell growth measured after 72 hrs by Celltiter-glo luminescent cell viability assay", "type": "functional, cell-based", "settings": "MV4-11, 72 h"}},
  "note": "pIC50: −log10 of the molar value. Calls of active or inactive are those of the source. No cut-off for these calls is given here.",
  "data": [
    {"smiles": "O=C(Nc1ccc(Oc2ccnc(NC(=O)N3CC(O)C3)c2)c(F)c1)c1cn(-c2cccnc2)nn1", "values": [
      {"measurement": "inhibition", "setting": "Homo sapiens [1]", "value": "inactive"},
      {"measurement": "inhibition", "setting": "[2]", "value": "inactive"},
      {"measurement": "inhibition", "setting": "[3]", "value": "inactive"},
      {"measurement": "Activity", "setting": "MOLM-13 [4]", "value": 0.063, "unit": "%"},
      {"measurement": "inhibition", "setting": "Homo sapiens [5]", "value": "inactive"},
      {"measurement": "inhibition", "setting": "[6]", "value": "inactive"},
      {"measurement": "Activity", "setting": "[7]", "value": "Non-toxic"},
      {"measurement": "Activity", "setting": "MOLM-13 [8]", "value": 11, "unit": "%"},
      {"measurement": "MRT last at 48 h", "setting": "[9]", "value": 4.49, "unit": "h"},
      {"measurement": "Activity", "setting": "MOLM-13 [10]", "value": 9.44, "unit": "%"},
      {"measurement": "inhibition", "setting": "[11]", "value": "inactive"},
      {"measurement": "inhibition", "setting": "[12]", "value": "inactive"},
      {"measurement": "inhibition", "setting": "[13]", "value": "inactive"},
      {"measurement": "pIC50", "setting": "[14]", "value": 7.16},
      {"measurement": "inhibition", "setting": "[15]", "value": 100, "unit": "%"},
      {"measurement": "Activity", "setting": "[16]", "value": 22, "unit": "%"},
      {"measurement": "pIC50", "setting": "[17]", "value": 6.23},
      {"measurement": "inhibition", "setting": "[18]", "value": "inactive"},
      {"measurement": "pIC50", "setting": "SBC-5", "value": "< 4.52"},
      {"measurement": "inhibition", "setting": "[19]", "value": "inactive"},
      {"measurement": "pIC50", "setting": "EBC-1", "value": "< 4.52"},
      {"measurement": "inhibition", "setting": "[20]", "value": "inactive"},
      {"measurement": "Activity", "setting": "MOLM-13 [21]", "value": 4.87, "unit": "%"},
      {"measurement": "viability at 0.3 µM", "setting": "MOLM-13 [22]", "value": 68.4, "unit": "%"},
      {"measurement": "inhibition", "setting": "[23]", "value": "inactive"},
      {"measurement": "pIC50", "setting": "[24]", "value": 6.95},
      {"measurement": "pIC50", "setting": "U-87 MG", "value": "< 4.52"},
      {"measurement": "Activity", "setting": "MOLM-13 [25]", "value": 38.4, "unit": "%"},
      {"measurement": "inhibition", "setting": "[26]", "value": "inactive"},
      {"measurement": "Activity", "setting": "MOLM-13 [27]", "value": 33.6, "unit": "%"},
      {"measurement": "inhibition", "setting": "[28]", "value": "inactive"},
      {"measurement": "pIC50", "setting": "[29]", "value": 7.07},
      {"measurement": "Activity", "setting": "MOLM-13 [30]", "value": 1.05, "unit": "%"},
      {"measurement": "viability at 1 µM", "setting": "MOLM-13 [31]", "value": 56.7, "unit": "%"},
      {"measurement": "pIC50", "setting": "MOLM-14", "value": 6.66},
      {"measurement": "inhibition", "setting": "[32]", "value": "inactive"},
      {"measurement": "Tmax", "setting": "[33]", "value": 1.8, "unit": "min"},
      {"measurement": "pIC50", "setting": "MV4-11", "value": 6.89}
    ]}
  ]
}
